Consider 1 molecule from article PMC7708037, “Targeting OGG1 arrests cancer cell proliferation by inducing replication stress” (Nucleic Acids Research, 2020).

One test deals with MCM4 mRNA in A3 cells. Briefly: Real time PCR of MCM4 mRNA. In kind it is cell-based, human. The settings on record: 10 μM, 72 h. The protocol:
RNA was extracted from cultured cells using TRIzol® Reagent (Thermo Fisher Scientific). RNA quantity and quality were assessed by NanoDrop® (ND-1000 V3.7.1; Thermo Fisher Scientific). The High-Capacity cDNA Reverse Transcription Kit (Applied Biosystems) was utilized for cDNA synthesis following the manufacturer's instructions. Two microliters of cDNA at a final concentration of 10 ng/μl were mixed with GoTaq® qPCR MasterMix 1× (Promega) and 1 μM cDNA primers of each pair of primers (F/R) in a final volume reaction of 10 μl. Primers used are listed in Supplementary Table S2. The amplification conditions consisted of an initial step at 95°C for 10 min, followed by 40 cycles of 10 s at 95°C and 1 min at 60°C. Each qPCR was performed in duplicates or triplicates including no-template controls in an Abi QuantStudio 1 Flex Real-Time PCR System (Applied Biosystems). Relative transcript levels for each replication gene, was calculated using the 2ΔΔCt method for qPCR analysis after normalization with the housekeeping gene beta-actin (B-actin-F 5′-CCTGGCACCCAGCACAAT- 3′; B-actin-R 5′ - GGGCCGGACTCGTCATACT-3′).
Figure 6. […] Only genes with a mean normalized count >5 were analyzed. […] Statistical significance was determined using a two-sided unpaired t-test (ns, non-significant, *P < 0.05, **P < 0.01, ***P < 0.001 and ****P < 0.0001).

Test [1] concerns Ogg1−/− mouse embryonic fibroblasts. Briefly: Colony formation assay. In kind it is cell-based. The settings on record: up to 20 μM. The protocol:
The indicated concentrations TH5487 were spotted in 6-well plates using a Tecan D300e digital dispenser. 200–500 cells/well H460, ACHN, Ogg1^−/− mouse embryonic fibroblasts and MRC5 cells were then seeded at 200–500 cells/well and incubated for 7–11 days. Colonies exceeding 50 cells were fixed, stained and enumerated as above.
Figure 3. The OGG1 inhibitor TH5487 is selectively toxic to oncogene-expressing cells and cancer cell lines. (A) Close-up view of ligand TH5487 (green) binding to human OGG1. Important residues in the binding site are marked, hydrogen bond interactions are shown in black dashed line, water (red sphere)-mediated interactions in grey dashed line. (B) Comparison between the binding of ligand TH5487 (green) to human OGG1 (gray) with the structure of TH5675 (pink) bound to mouse OGG1 (yellow, PDB 6G3Y). (C) Viability of BJ-Tert and BJ-Ras cells exposed to the indicated concentrations TH5487 for five days. Data are average ±SD of four technical replicates from two independent experiments. (D) Clonogenic survival of cell lines exposed to TH5487. The cancer cell lines ACHN and H460, and the non-transformed cell lines MRC5 and Ogg1^−/− mouse embryonic fibroblasts (MEF) were incubated for 6–11 days in the presence of the indicated concentrations TH5487, followed by colony enumeration. […]

Test [2] concerns MCM4 gene promoter in A3 cells. Put plainly: Oxidative DNA damage within MCM4 gene promoter (qPCR). In kind it is cell-based, human. The settings on record: 10 μM, 72 h. The protocol: We adapted the procedure described by O’Callaghan et al. ([46]) to measure oxidative DNA damage at the MCM4 gene promoter region. This is a qPCR method based on differences in PCR kinetics between DNA template digested by FPG and undigested DNA. We have modified the original protocol to incorporate another purified human OGG1 to quantify the accumulation of base lesions specific for OGG1, 8-oxoguanine. Conditions used for incubation were 200 ng of gDNA together with 2.4 μM of hOGG1 during 4 h. The quantitative real-time amplification of genomic DNA was performed as described by O’Callaghan et al. ([46]). Specific primers were used at a final concentration of 100 nM (promoterMCM4-F: 5′-GCTGTGATTGGTGAGGCCC -3′; promoterMCM4-R: 5′-CAAACCGCGAGACCCAGAG-3′) . Amplification cycling conditions were 10 min at 95°C, followed by 40 cycles of 95°C for 15 s and 60°C for 1 min. ΔCT method was run in an ABI quant studio 1 and all samples were loaded and analyzed in triplicate.
Figure 6. TH5487 treatment induces a downregulation of DNA replication genes (A) Gene Set Enrichment analysis plot of the DNA Replication Gene Ontology Gene Set. […] Only genes with a mean normalized count >5 were analyzed. […] Statistical significance was determined using a two-sided unpaired t-test (ns, non-significant, *P < 0.05, **P < 0.01, ***P < 0.001 and ****P < 0.0001).

`O=C(Nc1ccc(I)cc1)N1CCC(n2c(=O)[nH]c3c(Br)cccc32)CC1` [TH5487]: the “MCM4 mRNA levels” value with MCM4 mRNA in A3 cells is “slight but significant downregulation”. Besides, the Clonogenic potential result in test [1] is given as “unaffected”. For the same molecule, the “Oxidative DNA damage at SP1 binding motif of MCM4 promoter” value in test [2] is “significant accumulation of oxidative DNA damage”.
